Earlier results on one compound are cited in PMC7310027, “PET imaging of soluble epoxide hydrolase in non-human primate brain with [^18F]FNDP” (EJNMMI Research, 2020).

Molecules are shown by their SMILES.

The conditions of the data set: cited from earlier work.

For the compound `CC(=O)N1CCC(NC(=O)NC23CC4CC(CC(C4)C2)C3)CC1` [AR-9281, 1-(1-Acetyl-piperidin-4-yl)-3-adamantan-1-yl-urea], the BBB permeability entry is recorded as “BBB-permeable”.
